Measured values from article PMC12040169 (PLOS Biology, 2025).

Experiment: in vitro
Settings: human, hela cells, % viability

SMILES	viability at 28.5 h, 10 µM
CCOC(=O)NC(Nc1cccc(C)n1)(C(F)(F)F)C(F)(F)F [CBK261343]	115%
O=C(CSc1ccc2ccccc2c1)NCc1ccco1 [CBK269699]	80.3%
COc1ccc(C(=O)Cn2nc3nnc(-c4ccccc4)c(-c4ccccc4)n3c2=O)cc1 [CBK286181]	83.4%
Cc1ccc2[nH]c(SCc3nc(-c4cccs4)no3)nc2c1 [CBK269509]	108%
N/C(=N\OC(=O)c1cc(-c2ccccc2)nc2ccccc12)c1cccnc1 [CBK265106]	101%
O=C(c1ccc(-c2nccnc2NCC2CC2)cc1)N1CCOCC1 [CBK036814]	88.8%
COc1ccc(C2CC(=O)C(=CNCCN3CCN(C(=O)c4ccccc4)CC3)C(=O)C2)cc1 (stereo not shown) [CBK264762]	104%
Cc1ccc(C2CCC(C(=O)O)C(C(=O)O)C2)cc1C (stereo not shown) [CBK287184]	98.2%
CCn1nccc1C(=O)Nc1nc2ccccc2n1CCN1CCCCC1 [CBK265737]	89.1%
Cc1cccc(-c2csc3c(=O)[nH]c(N4CCC(C(=O)NCCN(C)C)CC4)nc23)c1 [CBK215633]	95.8%
CC(C)[C@H](CO)Nc1cncc(-c2cccc(N(C)C)c2)n1 [CBK065547]	81.9%
CC1Cc2cc(C(O)CN3CCC4CCCCC4C3)ccc2N1S(C)(=O)=O (stereo not shown) [CBK286456]	116%
CCC(CN1CCOCC1)NC(=O)Cc1coc2cc(C)c(C)cc12 (stereo not shown) [CBK282811]	91%
CCCc1cc(CNC(=O)c2cnn(-c3ccc(F)cc3)c2)on1 [CBK282463]	86.6%
CN(C)CCCOc1ccc2c(c1)Sc1ccccc1CC2=O [CBK058002]	95.4%
COCC(=O)NC1CCN(CC2(c3cccc(F)c3)CCCC2)CC1 [CBK282546]	108%
CC(=O)Nc1nnc(-c2ccc(Cl)cc2)s1 [CBK287331]	94.4%
Cn1cc(CCNC(=O)Nc2ccc(CN3CCCC3=O)cc2)cn1 [CBK305410]	107%
O=C(CN1C(=O)N2CCCN=C2c2ccc(Cl)cc21)N1CCCC1 [CBK284387]	78.7%
CCS(=O)(=O)N1CCN(Cc2ccc3c(c2)OCO3)CC1 [CBK074545]	92.2%

SMILES	viability at 28.5 h, 10 µM
Cc1cc([N+](=O)[O-])cc2c1NC(=O)C2(O)N1CCOCC1 (stereo not shown) [CBK262475]	91.7%
Cc1cc(S(=O)(=O)N2CCCC2)ccc1OCC(=O)NCc1ccccn1 [CBK270027]	96%
COCCNC(=O)C(C)SCc1ccccc1 (stereo not shown) [CBK028889]	86.1%
Cc1cc(S(=O)(=O)N2CCCCC2)ccc1OCC(=O)O [CBK269254]	80%
CCOC(=O)c1ccccc1NS(=O)(=O)Cc1ccccc1[N+](=O)[O-] [CBK050594]	92.3%
CCOc1cc(CNc2nc[nH]n2)cc(Cl)c1OCc1ccccc1F [CBK288088]	103%
Oc1ccc(-c2cncc(-c3ccc(F)cc3)n2)cc1 [CBK123794]	93.7%
O=C(c1ccccc1)N1C[C@H](c2ccc(F)cc2)[C@H]2CN(CCc3ccccc3)CC[C@H]21 [CBK286291]	98.2%
CC(C)(CO)NC(=O)COc1ccc(Cl)cc1 [CBK261833]	103%
CCn1c(COc2ccccc2Cl)nnc1SCC(=O)N1c2ccccc2Sc2ccccc21 [CBK265957]	114%
Cc1ccc(Cc2cnc(NC(=O)N3CCC(O)C(F)(F)C3)s2)cc1C (stereo not shown) [CBK304120]	94.7%
OC(COc1ccccc1)CN1CCN(Cc2ccccc2)CC1 (stereo not shown) [CBK074852C]	93%
OC1(c2ccccn2)CCN(CCc2ccccc2)CC1 [CBK282904]	87.2%
CC(C)(C)OC(=O)N1CCC(OCc2cn(-c3ccc(-n4cncn4)cc3)nn2)CC1 [CBK149477]	87.1%
COc1ccc2[nH]cc(CCNC(=O)COc3ccc(O)cc3)c2c1 [CBK116227]	82%
CCCC(=O)N1CCC(c2cc(C(F)F)c3c(C)noc3n2)CC1 [CBK285304]	102%
Cc1ccc(-c2nnc(-c3cccc(NC(=O)CSCc4ccc(Cl)cc4)c3)o2)cc1 [CBK266789]	92.3%
NC(=O)C1(Cc2ccccc2-c2cccc(F)c2)CCN(C(=O)c2cccc(F)c2)CC1 [CBK285693]	96.8%
O=C(NC1CC1)c1cc(C2CCCN(Cc3cccc(F)c3)C2)no1 (stereo not shown) [CBK284588]	99%
COc1ccc(Nc2nc(N)nc(CSCCO)n2)cc1 [CBK266714]	88.3%

SMILES	viability at 28.5 h, 10 µM
C=CCn1cc(CN2CCC(O)(c3ccccc3C)CC2)c(C)n1 [CBK282581]	86.5%
N#CCCCN1CCC(Oc2nccnc2OC2CCCCC2)CC1 [CBK082871T]	101%
COCOc1ccc(-c2ncc(OCc3ccc4c(c3)OCO4)nc2N)cc1 [CBK145101]	100%
Cc1ccccc1OCc1nnc(SCC(N)=O)n1-c1ccccc1 [CBK268808]	101%
CCc1cc(C(=O)N2CCC(Oc3ccc(F)cc3)CC2)n(C)n1 [CBK282034]	86.5%
COc1ccc2cc(C(=O)N3CCn4cncc4C3)n(C)c2c1 [CBK304362]	98.6%
CC(C)C(=O)N[C@H]1CC[C@]2(CC1)CNC(=O)c1ccccc1O2 [CBK281675]	103%
O=C(NCc1n[nH]c(=S)n1-c1cccc(C(F)(F)F)c1)c1cccs1 [CBK067697]	91.2%
CC(C)[C@H]1SC(NC[C@H](C)c2ccccc2)=NC1=O [CBK074034]	93.6%
Cc1ccc(CN(CCCn2ccnc2)Cc2ccccn2)o1 [CBK283102]	106%
O=C(CC(C(=O)O)P(=O)(c1ccccc1)c1ccccc1)c1ccccc1 (stereo not shown) [CBK264971]	114%
OC(Cn1c(Cc2ccccc2)nc2ccccc21)Cn1c2ccc(Cl)cc2c2cc(Cl)ccc21 (stereo not shown) [CBK262546]	89.4%
CCOC(=O)c1c(C)n(-c2ccc(OC)cc2)c2ccc(O)c(CN(C)C)c12 [CBK261609C]	88%
COc1cccc(CN2CCN(C(=O)c3cccc(F)c3)CC2)c1OC [CBK074527]	85.1%
Cc1ncc(CN(C)C(C)C(=O)Nc2ccccc2N2CCCC2=O)s1 (stereo not shown) [CBK298274]	92%
COc1nccnc1N1CCN(Cc2ccccc2)CC1 [CBK084210]	90%
CC(=O)NC(CC(=O)N1CCCC(n2cccn2)C1)c1cccs1 (stereo not shown) [CBK305405]	94.6%
COc1ccc(C(C)NC2CCN(c3ccccn3)CC2)cc1F (stereo not shown) [CBK304146]	86.8%
COc1ccc(C(=O)CCCN2CC3CCC(NC(=O)Nc4ccc(F)c(F)c4)CC3C2)cc1 (stereo not shown) [CBK083514T]	109%

Same assay, conditions: human, hela cells, % viability, bulk resorufin, single well

SMILES	viability at 28.5 h, 10 µM
CC(=O)N1CCC2(CC1)OCc1cc(-c3ccccc3C#N)ccc1O2 [CBK061006]	100%
O=C(Cn1cc(/C=C2\C(=O)NC(=S)N(c3cccc(F)c3)C2=O)c2ccccc21)Nc1ccccc1 [CBK265152]	106%
CCOC(=O)C1(c2ccccc2)CCN(C(=O)Cc2ccc(Cl)c(Cl)c2)CC1 [CBK132175]	113%
O=C1CCCc2c1c1cccc(C(=O)O)c1n2Cc1ccccc1 [CBK002365]	95.6%
COc1ccc(CCNCc2ccc3c(c2)OCO3)cc1 [CBK074488]	95.7%
